{"source": "patent US9345682B2", "about": "“Inhibition of STAT3 signal transduction for human cancer therapy” (University of South Florida, priority 1999, dated 2016)", "system": "MOPC tumors", "experiment": "MOPC myeloma tumor growth in vivo", "parameters": "species or system BALB/c mice", "method": "Mice and tumor formation in vivo. Six- to eight-week old female BALB/c mice are obtained from the National Cancer Institute (Frederick, Md.). Cohorts of 3-5 mice per group are used for these experiments. Mice are shaved on the right flank and injected subcutaneously (s.c.) with 5×10^5 of either MOPC or MPC11 cells in […] of PBS to induce tumors.\nIn vivo treatment with AG-490 and IL-12. When tumors reach about 5 […] in diameter, AG-490 treatment of tumors is initiated and continued daily for 7-10 days. For MOPC tumors, injections of 0.85 mg/day of AG-490 are given intratumorally, supplemented with 0.5 mg/day of AG-490 i.p. For MPC11 tumors, the intratumoral treatment is halved while the i.p. dose remains the same. Control mice receive 50% DMSO vehicle alone in the same volume as the AG-490 treatment group. Recombinant IL-12 is given s.c. at either 100 ng or 200 ng every other day. Tumor growth is monitored daily by measuring two perpendicular tumor diameters with a caliper, and tumor volume was calculated according to the formula V=0.52*a*b(a+b)/2 (a=smallest superficial diameter; b=largest superficial diameter).", "data": [{"smiles": "N#C/C(=C\\c1ccc(O)c(O)c1)C(=O)NCc1ccccc1", "note": "[AG490]", "values": [{"measurement": "time to complete regression of all treated tumors", "setting": "5-mm pre-existing MOPC tumors, AG-490 0.85 mg/day intratumorally plus 0.5 mg/day i.p.", "value": "3 to 8", "unit": "days"}, {"measurement": "tumor regrowth after regression", "setting": "MOPC tumors, AG-490 treated mice", "value": "tumor regrowth is observed in all of the AG-490 treated mice except for one"}]}]}
